This is an account of results in patent US20070111265A1, “Ligands for mineralocorticoid receptor (MR) and methods for screening for or designing MR ligands” (Van Andel Research Institute, priority 2005, published 2007).

SMILES strings stand for the structures. pEC50: −log10 of the molar value. “And” between values parts separate entries of the source, which are not always exact repeats. Equal values may be shown once. “Also recorded” adds a separate entry of the source. Read-outs that look alike come from different tables or passages of the source.

Assay [1] concerns the target T1, wild type MR (full-length) (Homo sapiens, UniProt P08235).
T1 construct: receptor expression vector (pRS vector) encoding full-length GR and MR respectively (ATCC); host or cells: Cos-7
T1 sequence (P08235 1-984): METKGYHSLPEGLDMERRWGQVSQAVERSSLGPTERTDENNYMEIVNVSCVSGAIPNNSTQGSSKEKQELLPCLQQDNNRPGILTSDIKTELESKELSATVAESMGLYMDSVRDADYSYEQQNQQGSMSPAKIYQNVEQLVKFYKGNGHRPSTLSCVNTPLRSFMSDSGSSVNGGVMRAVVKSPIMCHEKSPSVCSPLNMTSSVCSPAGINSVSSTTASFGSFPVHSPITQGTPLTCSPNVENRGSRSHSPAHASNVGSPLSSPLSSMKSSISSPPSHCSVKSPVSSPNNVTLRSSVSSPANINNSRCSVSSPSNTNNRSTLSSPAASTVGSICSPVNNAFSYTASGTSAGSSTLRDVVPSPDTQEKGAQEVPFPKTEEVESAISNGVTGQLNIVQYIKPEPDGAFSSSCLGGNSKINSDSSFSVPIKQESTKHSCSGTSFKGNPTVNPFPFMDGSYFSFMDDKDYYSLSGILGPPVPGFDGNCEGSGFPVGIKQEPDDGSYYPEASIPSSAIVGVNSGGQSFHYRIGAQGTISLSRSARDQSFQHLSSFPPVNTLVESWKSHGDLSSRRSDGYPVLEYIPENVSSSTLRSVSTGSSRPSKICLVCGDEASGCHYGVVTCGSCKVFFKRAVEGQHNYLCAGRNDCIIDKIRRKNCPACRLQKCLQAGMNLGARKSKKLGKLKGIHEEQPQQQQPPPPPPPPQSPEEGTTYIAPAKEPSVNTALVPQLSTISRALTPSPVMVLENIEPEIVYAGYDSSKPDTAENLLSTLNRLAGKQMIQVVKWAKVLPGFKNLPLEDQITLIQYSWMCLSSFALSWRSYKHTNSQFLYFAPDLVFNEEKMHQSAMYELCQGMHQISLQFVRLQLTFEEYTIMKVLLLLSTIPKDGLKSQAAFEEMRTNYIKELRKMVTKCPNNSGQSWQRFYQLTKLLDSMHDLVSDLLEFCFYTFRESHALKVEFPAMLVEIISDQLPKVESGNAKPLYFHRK
In words: MMTV luciferase reporter assay in Cos-7 cells. The assay is classed as cell-based. On the procedure: (§1) Cos-7 cells were maintained in DMEM containing 10% fetal bovine serum (FBS) and were transiently transfected using Lipofectamine 2000 (Invitrogen). […] Cells were transfected in Opti-MEM with 400 ng of MMTV-Luc reporter plasmid and 400 ng of receptor expression vector (pRS vector) encoding full-length GR and MR respectively (ATCC). […] Luciferase data were normalized to Renilla activity as an internal control.
(§2) To validate the role of the key MR pocket residues in hormone recognition, the inventors mutated S843 and L848 to the corresponding GR residues (S843P and L848Q) within the context of the full length wild type receptor. […] We also performed reverse mutations in the full length GR receptor (P637S and Q642L) and tested them in the same MMTV reporter.

For the next assay, the target named is T2, GR Q642L (Homo sapiens, UniProt P04150, Q642L).
T2 construct: reverse mutations in the full length GR receptor (P637S and Q642L); expressed in transfected cells; host or cells: Cos-7
T2 sequence (P04150 1-777 Q642L): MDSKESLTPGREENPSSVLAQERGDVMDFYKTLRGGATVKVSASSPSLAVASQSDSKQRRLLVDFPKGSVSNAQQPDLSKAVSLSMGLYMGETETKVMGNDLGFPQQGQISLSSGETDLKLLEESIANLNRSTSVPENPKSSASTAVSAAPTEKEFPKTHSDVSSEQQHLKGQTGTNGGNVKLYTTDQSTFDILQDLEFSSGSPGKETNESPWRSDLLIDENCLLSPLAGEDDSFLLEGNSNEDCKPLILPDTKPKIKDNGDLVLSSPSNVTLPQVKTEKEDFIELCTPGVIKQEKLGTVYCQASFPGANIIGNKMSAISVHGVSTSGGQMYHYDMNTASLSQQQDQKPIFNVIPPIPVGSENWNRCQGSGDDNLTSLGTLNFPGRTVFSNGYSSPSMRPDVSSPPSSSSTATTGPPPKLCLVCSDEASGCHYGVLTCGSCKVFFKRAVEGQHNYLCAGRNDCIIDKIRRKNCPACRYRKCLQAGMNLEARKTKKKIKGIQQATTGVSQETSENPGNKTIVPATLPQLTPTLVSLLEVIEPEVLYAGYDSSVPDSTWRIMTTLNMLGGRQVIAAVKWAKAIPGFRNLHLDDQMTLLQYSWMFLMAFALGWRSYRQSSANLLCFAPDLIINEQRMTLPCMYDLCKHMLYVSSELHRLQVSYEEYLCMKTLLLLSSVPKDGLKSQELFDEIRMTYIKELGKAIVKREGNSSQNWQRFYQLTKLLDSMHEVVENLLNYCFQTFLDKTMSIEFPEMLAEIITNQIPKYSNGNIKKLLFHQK
Briefly: MMTV luciferase reporter assay in Cos-7 cells. The assay is classed as cell-based. Conditions: Cos-7, MMTV-Luc. On the procedure: as §1, §2

The mark [2] stands for this setting: Cos-7, MMTV-Luc, read-out: EC50, activation of wild type MR.
The mark [3] stands for this setting: summary of FIG. 5 dose-response, read-out: affinity to MR (shown in FIG. 5).

Take `C[C@]12CCC(=O)C=C1CC[C@@H]1[C@@H]2[C@@H](O)C[C@@]2(C)[C@H]1CC[C@]2(O)C(=O)CO` [cortisol]: the pEC50 in assay [1] (setting [2]) is 9.22; in assay [1] (setting [3]) it was 9.00 to 10.00. For the same compound, the “activation of GR Q642L” value at GR Q642L is “completely abolished activation; also recorded: inability of cortisol to activate”.
For the compound `C[C@]12C[C@H](O)[C@H]3[C@@H](CCC4=CC(=O)CC[C@@]43C)[C@@H]1CC[C@@H]2C(=O)CO` [corticosterone], the pEC50 in assay [1] (setting [2]) is 10.10 and > 10.00; in assay [1] (setting [3]), 9.00 to 10.00. Also, the “potency of corticosterone relative to cortisol” value in assay [1] (wild type MR) was “roughly 10 fold”. At GR Q642L, the “activation of GR Q642L” value is given as “remained intact”.
